EC50 data for 25 compounds are collected here from US11591341B2 (ALIGOS THERAPEUTICS, INC., priority 2019, dated 2023).

Where two headings read alike, the source gives them in different places.

This test relates to HBV. The test can be described thus: HBV-DNA Antiviral Assay Using HepG2.117 Cells (intracellular HBV DNA by qPCR). The test is classed as cell-based, hepatitis B virus (genotype D). Put shortly: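 Endpoint: qPCR copy number of intracellular HBV DNA after 3-day compound exposure, with inhibition set relative to the 2% DMSO control. The cells were doxycycline-free HepG2.117 carrying a Tet-off genotype D genome, dosed at nine 4-fold dilutions. A duplicate plate gave ATP-based viability (CC50).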
In general terms: Real-time PCR tracks product formation cycle by cycle.

One may read the EC50 as the concentration that produces a half-maximal response. As for `COc1cc2occc2cc1CNC(=O)c1c2n(c(=O)n1-c1ccc(OC(C)C)cc1)CCN(C(=O)c1ccc(Br)c(Cl)c1)C2` [Example 255, 7-(4-bromo-3-chloro-benzoyl)-2-(4-isopropoxyphenyl)-N-[(6-methoxybenzofuran-5-yl)methyl]-3-oxo-6,8-dihydro-5H-imidazo[1,5-a]pyrazine-1-carboxamide], the EC50 (Hepatitis B virus, HepG2.117) was 100 to 500 nM.
With `CC(NC(=O)c1c2n(c(=O)n1-c1ccc(OC3CC3)cc1)CCN(C(=O)c1ccc(Br)c(Cl)c1)C2)c1ccccc1` (racemic) [Example 179, 7-(4-bromo-3-chloro-benzoyl)-2-[4-(cyclopropoxy)phenyl]-3-oxo-N-[rac-(1R)-1-phenylethyl]-6,8-dihydro-5H-imidazo[1,5-a]pyrazine-1-carboxamide], the EC50 (Hepatitis B virus, HepG2.117) fell in the range of 100 to 500 nM.
Consider “13-benzyl-4-(4-bromo-3-chloro- benzoyl)-11-methylene-4,7,9,13- tetrazatricyclo[7.5.0.0^2,7]tetradec-1- ene-8.14-dione [Example 109]”, for which, where the note is “HBV DNA inhibition, HepG2.117 cells, intracellular HBV DNA by qPCR (Table 4), read-out: EC50”, the half-maximal effective concentration (EC50) lay in the range of 100 to 500 nM.
Under “Hepatitis B virus, HepG2.117”, `COc1cccc(CNC(=O)c2c3n(c(=O)n2-c2ccccc2)CCN(C(=O)c2ccc(Br)c(Cl)c2)C3)c1` [Example 33, 7-(4-bromo-3-chloro-benzoyl)-N-[(3-methoxyphenyl)methyl]-3-oxo-2-phenyl-6,8-dihydro-5H-imidazo[1,5-a]pyrazine-1-carboxamide] had an EC50 of 100 to 500 nM.
With `C[C@@H]1CN(c2ccc(-n3c(C(=O)NCc4ccccc4)c4n(c3=O)CCN(C(=O)c3ccc(Br)c(Cl)c3)C4)cc2)CCO1` (racemic) [Example 416, N-benzyl-7-(4-bromo-3-chloro-benzoyl)-3-oxo-2-[4-[rac-(2R)-2-methylmorpholin-4-yl]phenyl]-6,8-dihydro-5H-imidazo[1,5-a]pyrazine-1-carboxamide], the EC50 (Hepatitis B virus, HepG2.117) lay within 100 to 500 nM.
As for `COc1ccc(-n2c(C(=O)NCc3cccc4cccnc34)c3n(c2=O)CCN(C(=O)c2ccc(Br)c(Cl)c2)C3)cc1` [Example 166, 7-(4-bromo-3-chloro-benzoyl)-2-(4-methoxyphenyl)-3-oxo-N-(8-quinolylmethyl)-6,8-dihydro-5H-imidazo[1,5-a]pyrazine-1-carboxamide], the EC50 (Hepatitis B virus, HepG2.117) lay in the range of 100 to 500 nM.
Take `C[C@@H](c1ccccc1)N1C[C@@H](O)Cn2c(c3n(c2=O)CCN(C(=O)c2ccc(Br)c(Cl)c2)C3)C1=O` (stereo in doubt) [Example 237, (11RS)-2-(4-bromo-3-chloro-benzoyl)-11-hydroxy-13-[(1S)-1-phenylethyl]-4,7,9,13-tetrazatricyclo[7.5.0.0^2,7]tetradec-1-ene-8,14-dione]: the EC50 (Hepatitis B virus, HepG2.117) fell in the range of 500 to 5000 nM.
For the compound `O=C(NCc1ccccc1-c1nnco1)c1c2n(c(=O)n1-c1ccc(OC3CC3)cc1)CCN(C(=O)c1ccc(Br)c(Cl)c1)C2` [Example 434, 7-(4-bromo-3-chloro-benzoyl)-2-[4-(cyclopropoxy)phenyl]-N-[[2-(1,3,4-oxadiazol-2-yl)phenyl]methyl]-3-oxo-6,8-dihydro-5H-imidazo[1,5-a]pyrazine-1-carboxamide], the EC50 (Hepatitis B virus, HepG2.117) was below 100 nM.
In the case of `COc1ccc(CNC(=O)c2c3n(c(=O)n2-c2cccc(OC)c2)CCN(C(=O)c2ccc(Br)c(Cl)c2)C3)cc1` [Example 21, 7-(4-bromo-3-chloro-benzoyl)-2-(3-methoxyphenyl)-N-[(4-methoxyphenyl)methyl]-3-oxo-6,8-dihydro-5H-imidazo[1,5-a]pyrazine-1-carboxamide], under “Hepatitis B virus, HepG2.117”, the EC50 is 500 to 5000 nM.
Turning to `COc1ccc([C@@H](C)NC(=O)c2c3n(c(=O)n2-c2ccc(OC)cc2)CCN(C(=O)c2ccc(Br)c(Cl)c2)C3)cc1` (stereo in doubt) [Example 72, 7-(4-bromo-3-chloro-benzoyl)-2-(4-methoxyphenyl)-3-oxo-N-[rac-(1R)-1-(4-methoxyphenyl)ethyl]-6,8-dihydro-5H-imidazo[1,5-a]pyrazine-1-carboxamide], for the setting “Hepatitis B virus, HepG2.117”, the EC50 lay within 500 to 5000 nM.
As for `CC1Cn2c(c(C(=O)N[C@H](C)c3ccccc3F)n(-c3ccc(OC4CC4)cc3)c2=O)CN1C(=O)c1ccc(Br)c(Cl)c1` (mixture of isomers) [Example 321, (6RS)-7-(4-bromo-3-chloro-benzoyl)-2-[4-(cyclopropoxy)phenyl]-N-[(1R)-1-(2-fluorophenyl)ethyl]-6-methyl-3-oxo-6,8-dihydro-5H-imidazo[1,5-a]pyrazine-1-carboxamide], the concentration giving a half-maximal response (EC50) (Hepatitis B virus, HepG2.117) lay within 500 to 5000 nM.
Where the note is “Hepatitis B virus, HepG2.117”, `COc1ccc(CNC(=O)c2c3n(c(=O)n2-c2ccc(OCC(F)(F)F)cc2)CCN(C(=O)c2ccc(Br)c(Cl)c2)C3)c(F)c1` [Example 244, 7-(4-bromo-3-chloro-benzoyl)-N-[(2-fluoro-4-methoxy-phenyl)methyl]-3-oxo-2-[4-(2,2,2-trifluoroethoxy)phenyl]-6,8-dihydro-5H-imidazo[1,5-a]pyrazine-1-carboxamide] had an EC50 of 100 to 500 nM.
Where the note is “Hepatitis B virus, HepG2.117”, `O=C(NCc1ccccc1-c1cccnn1)c1c2n(c(=O)n1-c1ccc(OCC(F)(F)F)cc1)CCN(C(=O)c1ccc(Br)c(Cl)c1)C2` [Example 388, 7-(4-bromo-3-chloro-benzoyl)-3-oxo-N-[(2-pyridazin-3-ylphenyl)methyl]-2-[4-(2,2,2-trifluoroethoxy)phenyl]-6,8-dihydro-5H-imidazo[1,5-a]pyrazine-1-carboxamide] gave a concentration for a half-maximal effect (EC50) below 100 nM.
Same read-out and setting: under `COc1ccc(-n2c(C(=O)NCc3ncccn3)c3n(c2=O)CCN(C(=O)c2ccc(Br)c(Cl)c2)C3)cc1` [Example 157, 7-(4-bromo-3-chloro-benzoyl)-2-(4-methoxyphenyl)-3-oxo-N-(pyrimidin-2-ylmethyl)-6,8-dihydro-5H-imidazo[1,5-a]pyrazine-1-carboxamide] stands above 5000 nM.
Take `COc1ccc(-n2c(C(=O)NC(C(N)=O)c3ccccc3)c3n(c2=O)CCN(C(=O)c2ccc(Br)c(Cl)c2)C3)cc1` (racemic) [Example 206, 7-(4-bromo-3-chloro-benzoyl)-2-(4-methoxyphenyl)-3-oxo-N-[rac-(1R)-2-amino-2-oxo-1-phenyl-ethyl]-6,8-dihydro-5H-imidazo[1,5-a]pyrazine-1-carboxamide]: the EC50 (Hepatitis B virus, HepG2.117) is above 5000 nM.
For the setting “Hepatitis B virus, HepG2.117”, `O=C(NCc1ccccc1)c1c2n(c(=O)n1-c1ccccc1)CCN(C(=O)c1ccc(Cl)c(Cl)c1)C2` [Example 34, N-benzyl-7-(3,4-dichlorobenzoyl)-3-oxo-2-phenyl-6,8-dihydro-5H-imidazo[1,5-a]pyrazine-1-carboxamide] showed a concentration giving a half-maximal response (EC50) of 500 to 5000 nM.
Take `O=C(NCc1ccccc1)c1c2n(c(=O)n1-c1ccc(N3CCOCC3)cc1)CCN(C(=O)c1ccc(Br)c(Cl)c1)C2` [Example 278, N-benzyl-7-(4-bromo-3-chloro-benzoyl)-2-(4-morpholinophenyl)-3-oxo-6,8-dihydro-5H-imidazo[1,5-a]pyrazine-1-carboxamide]: the EC50 (Hepatitis B virus, HepG2.117) fell in the range of 100 to 500 nM.
`COc1ccc(CN2CCCCn3c(c4n(c3=O)CCN(C(=O)c3ccc(Br)c(Cl)c3)C4)C2=O)cc1` [Example 135, 4-(4-bromo-3-chloro-benzoyl)-14-[(4-methoxyphenyl)methyl]-4,7,9,14-tetrazatricyclo[7.6.0.0^2,7]pentadec-1-ene-8.15-dione]: the EC50 (Hepatitis B virus, HepG2.117) lay in the range of 500 to 5000 nM.
Take `C[C@@H](NC(=O)c1c2n(c(=O)n1-c1ccc(OC3CC3)cc1)CCN(C(=O)c1ccc(Br)c(Cl)c1)C2)c1ccc(OC2COC2)cc1F` (stereo in doubt) [Example 346, 7-(4-bromo-3-chloro-benzoyl)-2-[4-(cyclopropoxy)phenyl]-3-oxo-N-[rac-(1R)-1-[2-fluoro-4-(oxetan-3-yloxy)phenyl]ethyl]-6,8-dihydro-5H-imidazo[1,5-a]pyrazine-1-carboxamide]: the EC50 (Hepatitis B virus, HepG2.117) was 100 to 500 nM.
On to `CC(NC(=O)c1c2n(c(=O)n1-c1ccc(OC3CC3)cc1)CCN(C(=O)c1ccc(Br)c(Cl)c1)C2)c1cccc2nccnc12` (racemic) [Example 382, 7-(4-bromo-3-chloro-benzoyl)-2-[4-(cyclopropoxy)phenyl]-3-oxo-N-[rac-(1S)-1-quinoxalin-5-ylethyl]-6,8-dihydro-5H-imidazo[1,5-a]pyrazine-1-carboxamide], for which the half-maximal effective concentration (EC50) (Hepatitis B virus, HepG2.117) is below 100 nM.
The compound `COCC1(N(C)C(=O)c2c3n(c(=O)n2-c2ccc(OC)cc2)CCN(C(=O)c2ccc(Cl)c(Cl)c2)C3)CC1` [Example 111, 7-(3,4-dichlorobenzoyl)-N-[1-(methoxymethyl)cyclopropyl]-2-(4-methoxyphenyl)-N-methyl-3-oxo-6,8-dihydro-5H-imidazo[1,5-a]pyrazine-1-carboxamide] showed an EC50 (Hepatitis B virus, HepG2.117) above 5000 nM.
For the setting “Hepatitis B virus, HepG2.117”, `O=C(NCc1ccccc1)c1c2n(c(=O)n1-c1ccc(F)cc1)CCN(C(=O)c1ccc(Br)c(Cl)c1)C2` [Example 22, N-benzyl-7-(4-bromo-3-chloro-benzoyl)-2-(4-fluorophenyl)-3-oxo-6,8-dihydro-5H-imidazo[1,5-a]pyrazine-1-carboxamide] registered an EC50 of 500 to 5000 nM.
For `COc1ccc(-n2c(C(=O)NCc3cccc(C(N)=O)c3)c3n(c2=O)CCN(C(=O)c2ccc(Cl)c(Cl)c2)C3)cc1` [Example 126, N-[(3-carbamoylphenyl)methyl]-7-(3,4-dichlorobenzoyl)-2-(4-methoxyphenyl)-3-oxo-6,8-dihydro-5H-imidazo[1,5-a]pyrazine-1-carboxamide], the EC50 (Hepatitis B virus, HepG2.117) was above 5000 nM.
In turn, `COc1ccc(-n2c(C(=O)NCc3ccc(Cl)cc3)c3n(c2=O)CCN(C(=O)c2ccc(Br)c(Cl)c2)C3)cc1` [Example 139, 7-(4-bromo-3-chloro-benozyl)-N-[(4-chlorophenyl)methyl]-2-(4-methoxyphenyl)-3-oxo-6,8-dihydro-5H-imidazo[1,5-a]pyrazine-1-carboxamide] had an EC50 (Hepatitis B virus, HepG2.117) of 100 to 500 nM.
Turning to `C[C@@H](NC(=O)c1c2n(c(=O)n1-c1ccccc1)CCN(C(=O)c1ccc(Br)c(Cl)c1)C2)c1ccccc1` (stereo in doubt) [Example 37, 7-(4-bromo-3-chloro-benzoyl)-3-oxo-2-phenyl-N-[rac-(1R)-1-phenylethyl]-6,8-dihydro-5H-imidazo[1,5-a]pyrazine-1-carboxamide], for the setting “Hepatitis B virus, HepG2.117”, the EC50 is 500 to 5000 nM.
